Data on 13 compounds can be found in US11661418B2, “MASP-2 inhibitors and methods of use” (Omeros Corporation, priority 2019, dated 2023).

The Ki is the dissociation constant of the complex between target and ligand, obtained from inhibition or displacement. Higher therefore signals lower affinity.

Sequence of MASP-2 (CCP1-CCP2-SP) (O00187 445-686): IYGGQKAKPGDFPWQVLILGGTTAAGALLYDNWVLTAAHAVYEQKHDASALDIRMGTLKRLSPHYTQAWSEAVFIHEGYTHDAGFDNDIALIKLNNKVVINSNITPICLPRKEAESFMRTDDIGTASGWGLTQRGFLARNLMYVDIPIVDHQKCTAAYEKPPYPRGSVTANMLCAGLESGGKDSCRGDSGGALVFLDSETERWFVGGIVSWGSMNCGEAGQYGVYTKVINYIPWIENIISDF
Sequence of MASP-2 (CCP1-CCP2-SP) (O00187 287-444 partner): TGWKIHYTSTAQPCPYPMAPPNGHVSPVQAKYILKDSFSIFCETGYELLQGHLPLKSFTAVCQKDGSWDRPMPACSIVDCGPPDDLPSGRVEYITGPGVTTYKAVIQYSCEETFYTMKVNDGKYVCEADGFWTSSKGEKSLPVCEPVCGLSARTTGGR

The assay concerns the target MASP-2 (CCP1-CCP2-SP) (Homo sapiens (Human), UniProt O00187). As to the kind of experiment: Enzymatic Assay for MASP-2 (fluorogenic substrate). The format is biochemical. To be noted: fluorogenic substrate based on C2 cleavage site; room temperature; 20 mM HEPES pH 7.4, 140 mM NaCl, 0.1% Tween 20; 20 min. The method, then: The MASP-2 assay utilizes a fluorogenic substrate, based on the cleavage site for its natural substrate C2. The assay is run at room temperature in an assay buffer containing 20 mM HEPES, pH 7.4, 140 mM NaCl and 0.1% Tween 20. Assay parameters are adjusted such that the assay is linear with respect to time, enzyme, and substrate concentrations. Under these optimized assays conditions, IC50 values are equivalent to Ki values, except in a few cases of “tight binding” inhibitors. Cases of “tight binding” or possible “slow binding” inhibitors are handled by the methods described in Copeland R.A. (2013) Evaluation of Enzyme Inhibitors in Drug Discovery. 2nd Ed., John Wiley and Sons, Inc., Chapters 5-7.
The MASP-2 assay protocol is carried out as follows. Test compounds are serially diluted in DMSO and then 100 nL of each dilution is transferred to the assay plate(s). 10 μL of Assay Buffer is added, followed by 15 μL of Enzyme MASP-2 (CCP1-CCP2-SP) in Assay Buffer. 15 μL of Substrate in Assay Buffer is then added and mixed to start the reactions. After 20 min at room temperature, 15 μL of a stop solution (0.1 M acetic acid) is added, mixed and the plates are read on a SpectraMax i3x Microplate Reader and exported as Excel files. Each assay plate included a “no inhibitor” (DMSO Only) control, a “no enzyme” control and a reference inhibitor control. % Activity values=100*(average test comp. fluorescence−average “no enzyme” fluorescence)/(average “DMSO only” fluorescence−average “no enzyme” fluorescence). IC50 and Ki values are very reproducible, falling well within 2-fold.
`CC(C)[C@H](N)C(=O)O/N=C(\N)c1ccc(CNC(=O)[C@H](C)NC(=O)[C@H]2C[C@@H](c3ccccc3)CCN2)cc1` [Compound I-7, (2R,4S)—N—((S)-1-((4-((Z)—N′-((L-valyl)oxy)carbamimidoyl)benzyl)amino)-1-oxopropan-2-yl)-4-phenylpiperidine-2-carboxamide] yielded a Ki of less than 500 nM.
The result for `C[C@H](NC(=O)[C@H]1C[C@@H](c2ccccc2)CC[N+]1(C)C)C(=O)NCc1ccc(C(=N)N)cc1` [Compound I-10, (2R,4S)-2-(((S)-1-((4-carbamimidoylbenzyl)amino)-1-oxopropan-2-yl)carbamoyl)-1,1-dimethyl-4-phenylpiperidin-1-ium 2,2,2-trifluoroacetate] reads less than 500 nM; that for `CCOC(=O)CCN1CC[C@H](c2ccccc2)C[C@@H]1C(=O)N[C@@H](C)C(=O)NCc1ccc(C(=N)N)cc1` [Compound I-13, ethyl 3-((2R,4S)-2-(((S)-1-((4-carbamimidoylbenzyl)amino)-1-oxopropan-2-yl)carbamoyl)-4-phenylpiperidin-1-yl)propanoate], less than 500 nM; that for `C[C@H](NC(=O)[C@H]1C[C@@H](c2ccccc2)CCN1CCC(=O)O)C(=O)NCc1ccc(C(=N)N)cc1` [Compound I-14, 3-((2R,4S)-2-(((S)-1-((4-carbamimidoylbenzyl)amino)-1-oxopropan-2-yl)carbamoyl)-4-phenylpiperidin-1-yl)propanoic acid], less than 500 nM.
The result for `C[C@H](NC(=O)[C@H]1C[C@@H](c2ccccc2)CCN1CCP(=O)(O)O)C(=O)NCc1cc2cnccc2[nH]1` [Compound I-15, (2-((2R,4S)-2-(((S)-1-(((1H-pyrrolo[3,2-c]pyridin-2-yl)methyl)amino)-1-oxopropan-2-yl)carbamoyl)-4-phenylpiperidin-1-yl)ethyl)phosphonic acid] reads less than 500 nM.
As for `Cc1nc(N)ccc1CNC(=O)[C@@H]1CCN1C(=O)[C@H]1C[C@@H](c2ccccc2)CCN1C` [Compound I-16, (S)—N-((6-amino-2-methylpyridin-3-yl)methyl)-1-((2R,4S)-1-methyl-4-phenylpiperidine-2-carbonyl)azetidine-2-carboxamide], the Ki is less than 500 nM.
`CN1CC[C@H](c2ccccc2)C[C@@H]1C(=O)N1CC[C@H]1C(=O)NCc1ccc(C(=N)N)cc1` [Compound I-17, (S)—N-(4-carbamimidoylbenzyl)-1-((2R,4S)-1-methyl-4-phenylpiperidine-2-carbonyl)azetidine-2-carboxamide] gave a Ki of less than 500 nM.
`N=C(NC(=O)OCc1ccccc1)c1ccc(CNC(=O)[C@@H]2CCN2C(=O)[C@H]2C[C@@H](c3ccccc3)CCN2)cc1` [Compound I-19, benzyl (imino(4-(((S)-1-((2R,4S)-4-phenylpiperidine-2-carbonyl)azetidine-2-carboxamido)methyl)phenyl)methyl)carbamate] displayed a Ki of 500 to 2500 nM.
With `CCN1CC[C@H](c2ccccc2)C[C@@H]1C(=O)N[C@@H](C)C(=O)NCc1ccc(C(=N)NC(=O)OCc2ccccc2)cc1` [Compound I-20, benzyl ((4-(((S)-2-((2R,4S)-1-ethyl-4-phenylpiperidine-2-carboxamido)propanamido)methyl)phenyl)(imino)methyl)carbamate], the Ki lay in the range of 2500 to 10000 nM.
`CCN1CC[C@H](c2ccccc2)C[C@@H]1C(=O)N[C@@H](C)C(=O)NCc1ccc(C(=N)N)cc1` [Compound I-21, (2R,4S)—N—((S)-1-((4-carbamimidoylbenzyl)amino)-1-OXOPROPAN-2-yl)-1-ethyl-4-phenylpiperidine-2-carboxamide] gave a Ki of less than 500 nM.
Compound `CCN1CC[C@H](c2cccc(-n3cccn3)c2)C[C@@H]1C(=O)N[C@@H](C)C(=O)NCc1cc(Cl)ccc1-n1cnnn1` [Compound I-22, (2R,4S)-4-(3-(1H-pyrazol-1-yl)phenyl)-N—((S)-1-((5-chloro-2-(1H-tetrazol-1-yl)benzyl)amino)-1-oxopropan-2-yl)-1-ethylpiperidine-2-carboxamide] displayed a Ki of less than 500 nM.
With `C[C@H](NC(=O)[C@H]1C[C@@H](c2ccccc2)CCN1)C(=O)NCc1ccc(/C(N)=N/O)s1` [Compound I-24, (2R,4S)—N—((S)-1-(((5-((Z)—N-hydroxycarbamimidoyl)thiophen-2-yl)methyl)amino)-1-oxopropan-2-yl)-4-phenylpiperidine-2-carboxamide] the figure was less than 500 nM; with `C[C@H](NC(=O)[C@H]1C[C@@H](c2ccccc2)CCN1)C(=O)NCc1ccc(/C(N)=N/O)cc1` [Compound I-31, (2R,4S)—N—((S)-1-((4-((Z)—N′-hydroxycarbamimidoyl)benzyl)amino)-1-oxopropan-2-yl)-4-phenylpiperidine-2-carboxamide], 500 to 2500 nM.
